Reference: US10544106B2, “Certain chemical entities, compositions, and methods” (NeuPharma, Inc., priority 2016, dated 2020)

Biological target: BTK (Homo sapiens (Human), UniProt Q06187)
Assay: Z'-LYTE kinase inhibition assay against BTK
Format: biochemical
Details: for inhibition at 0.1 µM: compound at 100 nM, ATP concentration at Km; for IC50: series of concentrations, GraphPad Prism 5
Description: Inhibitory activities of compounds against BTK, EGFR T790M, EGFR L858R, and EGFR L858R/T790M were measured using Z′-LYTE® Method from Life Technologies as briefly described in the following.
Test Compounds are screened in 1% DMSO (final) in the well. For 10 point titrations, 3-fold serial dilutions are conducted from the starting concentration. All ATP Solutions are diluted to a 4× working concentration in Kinase Buffer (50 mM HEPES pH 7.5, 0.01% BRIJ-35, 10 mM MgCl2, 1 mM EGTA). Peptide/Kinase Mixtures are diluted to a 2× working concentration in the appropriate Kinase Buffers as described below. • (i) Peptide/Kinase Mixtures for measurement of EGFR (ErbB1) L858R: • The 2×EGFR (ErbB1) L858R/Tyr 04 mixture is prepared in 50 mM HEPES pH 7.5, 0.01% BRIJ-35, 10 mM MgCl2, 4 mM MnCl2. 1 mM EGTA, 2 mM DTT. The final 10 μL Kinase Reaction consists of 0.2-1.68 ng EGFR (ErbB1) L858R and 2 μM Tyr 04 in 50 mM HEPES pH 7.5, 0.01% BRIJ-35, 10 mM MgCl2, 2 mM MnCl2, 1 mM EGTA, 1 mM DTT. After the 1 hour Kinase Reaction incubation, 5 μL of a 1:64 dilution of Development Reagent B is added. • (ii) Peptide/Kinase Mixtures for measurement of EGFR (ErbB1) T790M: The 2×EGFR (ErbB1) T790M/Tyr 04 mixture is prepared in 50 mM HEPES pH 6.5, 0.01% BRIJ-35, 10 mM MgCl2, 1 mM EGTA, 0.02% NaN3. The final 10 μL Kinase Reaction consists of 3.9-30.2 ng EGFR (ErbB1) T790M and 2 μM Tyr 04 in 50 mM HEPES pH 7.0, 0.01% BRIJ-35, 10 mM MgCl2, 1 mM EGTA, 0.01% NaN3. After the 1 hour Kinase Reaction incubation, 5 μL of a 1:64 dilution of Development Reagent B is added. • (iii) Peptide/Kinase Mixtures for measurement of EGFR (ErbB1) L858R/T790M: The 2×EGFR (ErbB1) T790M L858R/Tyr 04 mixture is prepared in 50 mM HEPES pH 6.5, 0.01% BRIJ-35, 10 mM MgCl2, 1 mM EGTA, 0.02% NaN3. The final 10 μL Kinase Reaction consists of 0.38-4.22 ng EGFR (ErbB1) T790M L858R and 2 μM Tyr 04 in 50 mM HEPES pH 7.0, 0.01% BRIJ-35, 10 mM MgCl2, 1 mM EGTA, 0.01% NaN3. After the 1 hour Kinase Reaction incubation, 5 μL of a 1:64 dilution of Development Reagent B is added. • (iv) Peptide/Kinase Mixtures for measurement of BTK: The 2×BTK/Tyr 01 mixture is prepared in 50 mM HEPES pH 7.5, 0.010/BRIJ-35, 10 mM MgCl2, 1 mM EGTA. The final 10 μL Kinase Reaction consists of 1.04-10.4 ng BTK and 2 μM Tyr 01 in 50 mM HEPES pH 7.5, 0.01% BRIJ-35, 10 mM MgCl2, 1 mM EGTA. After the 1 hour Kinase Reaction incubation, 5 μL of a 1:256 dilution of Development Reagent B is added.
Reaction starts by 30-second shaking of mixture consisting of 2.5 μL 4× test compound, 5 μL 2× kinase reaction mixture and 2.5 μL 4×ATP Solution on Bar-coded Corning, low volume NBS, black 384-well plate (Corning Cat. #3676). Then the mixture is incubated for 60-minute at room temperature for the kinase reaction, followed by addition of 5 μL of a 1:1024 dilution of development reagent A and 30-second plate shake. The mixture is then incubated for another 60-minute at room temperature for development reaction. Finally fluorescence is read by plate reader.
The Z′-LYTE assay was carried out with ATP concentration at Km. The scale utilized in Tables 2-6 is as follows: ++ more than 50% inhibition and + less than 50% inhibition.
To determine IC50 of a compound against a kinase, a series of concentrations of the compound were tested for the inhibition. IC50 was calculated by plotting the concentration of compound vs the percentage of inhibition in treated wells using GraphPad Prism 5. […] The scale utilized in Table 7 is as follows: ++ less than 100 nM and + greater than 100 nM.

BTK, sequence (Q06187 whole entry): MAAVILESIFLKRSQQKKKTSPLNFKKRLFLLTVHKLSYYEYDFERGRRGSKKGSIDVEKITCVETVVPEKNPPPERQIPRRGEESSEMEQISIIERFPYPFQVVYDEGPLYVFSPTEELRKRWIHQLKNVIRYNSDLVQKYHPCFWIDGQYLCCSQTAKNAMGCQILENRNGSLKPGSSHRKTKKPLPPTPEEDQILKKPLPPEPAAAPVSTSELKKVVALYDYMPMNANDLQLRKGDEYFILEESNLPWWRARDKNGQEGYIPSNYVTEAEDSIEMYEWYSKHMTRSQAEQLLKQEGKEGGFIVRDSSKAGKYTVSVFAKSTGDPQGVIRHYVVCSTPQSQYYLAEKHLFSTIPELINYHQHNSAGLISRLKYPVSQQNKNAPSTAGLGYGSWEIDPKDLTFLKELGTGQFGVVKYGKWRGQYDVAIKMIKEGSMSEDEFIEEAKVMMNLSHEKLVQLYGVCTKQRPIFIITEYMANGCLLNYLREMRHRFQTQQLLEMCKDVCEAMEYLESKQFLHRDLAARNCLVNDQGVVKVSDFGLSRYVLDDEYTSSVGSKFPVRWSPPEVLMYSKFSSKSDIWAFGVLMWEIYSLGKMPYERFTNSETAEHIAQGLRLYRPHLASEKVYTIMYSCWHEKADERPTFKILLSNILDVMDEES

inhibition at 0.1 µM	IC50	Compound
< 50%	> 0.1 µM	C=CC(=O)Nc1cccc(-c2cc(-c3ccc(Oc4cc(C(F)(F)F)ccn4)cc3F)c(N)c3cncnc23)c1 [C187, N-(3-(5-amino-6-(2-fluoro-4-((4-(trifluoromethyl)pyridin-2-yl)oxy)phenyl)quinazolin-8-yl)phenyl)acrylamide]
> 50%	< 0.1 µM	C=CC(=O)Nc1cccc(-c2cc(-c3ccccc3C#N)cc3cncnc23)c1 [C075, N-(3-(6-(2-cyanophenyl)quinazolin-8-yl)phenyl)acrylamide]
< 50%	–	C=CC(=O)N1CCC(n2c(-c3ccccc3Cl)nc3cnc(N)nc32)C1 (centres unmarked) [C026, 1-(3-(2-amino-8-(2-chlorophenyl)-9H-purin-9-yl)pyrrolidin-1-yl)prop-2-en-1-one]
–	< 0.1 µM	CC#CC(=O)N1CCC(c2nc(-c3ccc(C(=O)Nc4cc(OC)ccn4)cc3)n3c(N)nccc23)C1 (centres unmarked) [C241, 4-(5-amino-1-(1-(but-2-ynoyl)pyrrolidin-3-yl)imidazo[1,5-c]pyrimidin-3-yl)-N-(4-methoxypyridin-2-yl)benzamide]
< 50%	–	C=CC(=O)Nc1cccc(-c2cc(-c3ccc(Oc4cc(C(F)(F)F)ccn4)cc3)cc3cnc(N)nc23)c1 [C098, N-(3-(2-amino-6-(4-((4-(trifluoromethyl)pyridin-2-yl)oxy)phenyl)quinazolin-8-yl)phenyl)acrylamide]
–	< 0.1 µM	4-(5-Amino-1-(1-(but-2-ynoyl)pyrrolidin-3-yl)imidazo[1,5-c]pyrimidin-3-yl)-N-(pyridin-2-yl)-3-(trifluoromethyl)benzamide [C248]
< 50%	> 0.1 µM	C=CC(=O)N1CCC(c2cc(-c3ccc(Oc4cc(C(F)(F)F)ccn4)cc3F)c(N)c3cncnc23)C1 (centres unmarked) [C195, 1-(3-(5-amino-6-(2-fluoro-4-((4-(trifluoro-methyl)pyridin-2-yl)oxy)phenyl)quinazolin-8-yl)pyrrolidin-1-yl)prop-2-en-1-one]
> 50%	–	C=CC(=O)N1CCC(c2cc(-c3ccc(C(=O)Nc4cc(C(F)(F)F)ccn4)cc3)n3cnccc23)C1 (centres unmarked) [C136, 4-(5-(1-acryloylpyrrolidin-3-yl)pyrrolo[1,2-c]pyrimidin-7-yl)-N-(4-(trifluoromethyl)pyridin-2-yl)benzamide]
< 50%	–	C=CC(=O)N1CCC(c2cc(-c3ccc(Oc4cc(C(F)(F)F)ccn4)cc3F)cc3cncnc23)C1 (centres unmarked) [C090, 1-(3-(6-(2-Fluoro-4-((4-(trifluoromethyl)pyridin-2-yl)oxy)phenyl)quinazolin-8-yl)pyrrolidin-1-yl)prop-2-en-1-one]
< 50%	–	C=CC(=O)N1CCC(c2cc(-c3ccc(C(=O)Nc4ccccn4)cc3F)n3cnccc23)C1 (centres unmarked) [C126, 4-(5-(1-acryloylpyrrolidin-3-yl)pyrrolo[1,2-c]pyrimidin-7-yl)-3-fluoro-N-(pyridin-2-yl)benzamide]
< 50%	–	C=CC(=O)N1CCC(n2c(-c3ccccc3Cl)nc3cncnc32)C1 (centres unmarked) [C033, 1-(3-(8-(2-chlorophenyl)-9H-purin-9-yl)pyrrolidin-1-yl)prop-2-en-1-one]
< 50%	–	C=CC(=O)N1CCC(c2cc(-c3ccc(C(=O)Nc4cccc(C(F)(F)F)c4)cc3)cc3cncnc23)C1 (centres unmarked) [C068, 4-(8-(1-acryloylpyrrolidin-3-yl)quinazolin-6-yl)-N-(3-(trifluoromethyl)phenyl)benzamide]
< 50%	–	C=CC(=O)N1CCCC(n2c(-c3ccccc3)nc3cncnc32)C1 (centres unmarked) [C012, 1-(3-(8-phenyl-9H-purin-9-yl)piperidin-1-yl)prop-2-en-1-one]
< 50%	–	C=CC(=O)N1CCC(c2cc(-c3ccc(Oc4ccccn4)cc3)c(N)c3cncnc23)C1 (centres unmarked) [C181, 1-(3-(5-amino-6-(4-(pyridin-2-yloxy)phenyl)quinazolin-8-yl)pyrrolidin-1-yl)prop-2-en-1-one]
< 50%	–	C=CC(=O)N1CCC(c2cc(-c3ccc(C(=O)Nc4cccc(C(F)(F)F)c4)cc3)n3cnccc23)C1 (centres unmarked) [C058, 4-(5-(1-acryloylpyrrolidin-3-yl)pyrrolo[1,2-c]pyrimidin-7-yl)-N-(3-(trifluoro-methyl)phenyl)benzamide]
> 50%	< 0.1 µM	C=CC(=O)Nc1cccc(-c2cc(-c3ccc(C(=O)Nc4ccccn4)c(F)c3)cc3cncnc23)c1 [C132, 4-(8-(3-acrylamidophenyl)quinazolin-6-yl)-2-fluoro-N-(pyridin-2-yl)benzamide]
> 50%	–	C=CC(=O)Nc1cccc(-c2cc(-c3ccc(C(=O)Nc4cc(C)ccn4)cc3)cc3cncnc23)c1 [C041, 4-(8-(3-acrylamidophenyl)quinazolin-6-yl)-N-(4-methylpyridin-2-yl)benzamide]
> 50%	< 0.1 µM	C=CC(=O)Nc1cccc(-c2cc(-c3ccc(C(=O)Nc4cc(C#N)ccn4)cc3Cl)cc3cncnc23)c1 [C122, 4-(8-(3-acrylamidophenyl)quinazolin-6-yl)-3-chloro-N-(4-cyanopyridin-2-yl)benzamide]
< 50%	–	CC#CC(=O)N1CCC(c2nc(-c3ccc(Oc4ncccc4C(F)(F)F)cc3)n3c(N)nccc23)C1 (centres unmarked) [C219, 1-(3-(5-amino-3-(4-((3-(trifluoromethyl)pyridin-2-yl)oxy)phenyl)imidazo[1,5-c]pyrimidin-1-yl)pyrrolidin-1-yl)but-2-yn-1-one]
< 50%	–	C=CC(=O)Nc1cccc(-c2cc(-c3ccc(C(=O)Nc4cc(C#N)ccn4)cc3)cc3cncnc23)c1 [C109, 4-(8-(3-acrylamidophenyl)quinazolin-6-yl)-N-(4-cyanopyridin-2-yl)benzamide]
> 50%	< 0.1 µM	C=CC(=O)Nc1cccc(-c2cc(-c3ccc(C(=O)Nc4cc(C5CC5)ccn4)cc3)c(N)c3cncnc23)c1 [C171, 4-(8-(3-acrylamidophenyl)-5-aminoquinazolin-6-yl)-N-(4-cyclopropylpyridin-2-yl)benzamide]
> 50%	< 0.1 µM	C=CC(=O)Nc1cccc(-c2cc(-c3cncc(F)c3)cc3cnc(N)nc23)c1 [C111, N-(3-(2-amino-6-(5-fluoropyridin-3-yl)quinazolin-8-yl)phenyl)acrylamide]
–	< 0.1 µM	CC#CC(=O)N1CCCC(c2nc(-c3ccc(Oc4ccccn4)cc3)n3c(N)nccc23)C1 (centres unmarked) [C244, 1-(3-(5-amino-3-(4-(pyridin-2-yloxy)phenyl)imidazo[1,5-c]pyrimidin-1-yl)piperidin-1-yl)but-2-yn-1-one]
< 50%	–	C=CC(=O)N1CCC(c2cc(-c3ccccc3F)cc3cnc(N)nc23)C1 (centres unmarked) [C085, 1-(3-(2-amino-6-(2-fluorophenyl)quinazolin-8-yl)pyrrolidin-1-yl)prop-2-en-1-one]
< 50%	–	C=CC(=O)N1CCC(c2cc(-c3ccc(Oc4ccccn4)cc3F)c(N)c3cncnc23)C1 (centres unmarked) [C174, 1-(3-(5-amino-6-(2-fluoro-4-(pyridin-2-yloxy)phenyl)quinazolin-8-yl)pyrrolidin-1-yl)prop-2-en-1-one]
